Patent US20030109529A1, “Use of s-triazines for treating Apicomplexan parasitic infections” (priority 1999, published 2003)

Columns and labels:
[1] = tested on: mefloquine resistant P. falciparum (Mfl res); test: In vitro RBC culture, mefloquine resistant P. falciparum; format: cell-based, Plasmodium falciparum; details: for percentage of RBCs infected with mefloquine-resistant P. falciparum: Example 3, 48 hrs or 96 hrs after treatment; for Red Blood Cell Infection Rate: mefloquine-resistant, 96 hrs of treatment, 0.02 μM, control 24
Description: (§1) Briefly, a red blood cell suspension at a malarial (wild type Plasmodium falciparum) infection rate of approximately 1% was added to each well of a 96 well micro titer plate. The test compound was added to the cultures at final concentrations of 2.0, 0.2 or 0.02 μM. and incubated in an environment of 5% CO2, 5% O2 and 90% N2 at 37° C. Every 24 hrs the dish was removed, 100 μl of spent medium removed and 100 μl of fresh, compound containing-medium was added back to each well. This procedure was repeated daily.
(§2) At 48 hrs and again at 96 hrs, blood smears were made from each well and 500 Red Blood Cells (RBCs) were counted and inspected for malarial infection. The percent infection rate was then determined for each experimental condition tested.
The procedure set forth in Example 1 is utilized for testing the effectiveness of mefloquine and atrazine against mefloquine-resistant P. falciparum.
(§3) Malaria parasite (P. falciparum) was grown in culture as described previously. At 48 hours and 96 hours of treatment, red blood cells were taken from culture and the percent red blood cells infected with the parasite was determined by microscopic examination.

[2] = tested on: wild type Plasmodium falciparum; test: In vitro red blood cell culture infected with wild type Plasmodium falciparum, percent RBCs infected; format: cell-based; details: for effectiveness compared with chloroquine (text to Table 2): 2.0-0.02 μM
Description: The in vitro method used to test the anti-malarial effectiveness of various s-triazines was adapted from Trager, 1994, Methods in Cell Biology Vol 45:7-26.
as §1, §2, §3
The data in Table 2 represent percent red blood cell (RBC) infection rate at 48 hrs of treatment with the antimalarial test compound. Control cultures were 35% RBC infected.

[3] = tested on: chloroquine resistant P. falciparum (Clq res); test: In vitro RBC culture, chloroquine resistant P. falciparum; format: cell-based, Plasmodium falciparum; details: for percentage of RBCs infected with chloroquine-resistant P. falciparum: Example 2, 48 hrs or 96 hrs after treatment; for Red Blood Cell Infection Rate: chloroquine-resistant, 96 hrs of treatment, 0.02 μM, control 28
[4] = tested on: multi-drug resistant P. falciparum (MDR); test: In vitro RBC culture, multi-drug resistant P. falciparum; format: cell-based, Plasmodium falciparum; details: for Red Blood Cell Infection Rate: multidrug-resistant, 96 hrs of treatment, 0.02 μM, control 25
Description: as §1, §2, §3

[5] = tested on: antifolate-resistant P. falciparum; test: In vitro RBC culture, antifolate-resistant P. falciparum; format: cell-based, Plasmodium falciparum; details: Example 4, 48 hrs or 96 hrs after treatment
Description: as §1, §2
The procedure set forth in Example 1 is utilized for testing the effectiveness of triazine and atrazine against antifolate-resistant P. falciparum.

[6] = tested on: wild type rodent malaria (Plasmodium berghi); test: In vitro evaluation against wild type rodent malaria; format: cell-based; details: Experiment 5, 48 hrs or 96 hrs after treatment
Description: as §1, §2
The procedure set forth in Example 1 is utilized for testing compounds against wild type rodent malaria (Plasmodium berghi).

Plasmodium berghi = test: In vivo evaluation against Plasmodium berghi in Lewis rats, intravenous treatment; design: species or system rat; details: 20 mg/kg I.V., 24 and 48 hrs
Description: In vivo testing was performed using juvenile female Lewis rats. Rats were inoculated intraperitoneally with 30,000,000 Plasmodium berghi infected RBCs. Rats were bled daily from the tail vein and, when parasitemia reached 1-3%, therapy was begun.
Blood smears were obtained at 24 and 48 hrs. The percent RBCs infected was then calculated after counting and inspecting 500 RBCs for each rat.

Toxoplasma gondii = test: In vitro anti-Toxoplasma test in human foreskin fibroblasts; format: cell-based; details: 24 hrs after treatment
Description: Human foreskin fibroblasts are grown to confluency in 12 well plates. Next, Toxoplasma gondii is added to the plates. The resultant cultures are treated with the test compound 24 hrs later. […]

wild type yeast = test: Yeast assay for antifolate activity, wild type yeast; format: cell-based, Saccharomyces cerevisiae; details: 48 hours of treatment
[7] = tested on: yeast transfected with malarial dihydrofolate reductase (folate sensitive); test: Yeast assay for antifolate activity, folate sensitive yeast; format: cell-based, Saccharomyces cerevisiae; details: 48 hours of treatment
Description: (§4) We have established a in vitro yeast assay model for determining sensitivity to antifolate anti-malarials.
(§5) Saccharomyces cerevisiae was grown in culture and after 48 hours of treatment as described below the growth of the yeast was determined. Control (i.e., yeast grown with no treatment) is considered to be 100% growth. Drug treatment was then related to the controls as a percent of control growth. S. cerevisiae types tested included wild type yeast, yeast made sensitive to antifolate antimalarials by transfecting yeast with malarial dihydrofolate reductase (folate sensitive or folate sen), yeast transfected but not sensitive to antifolate antimalarials (folate insensitive or folate insen).

[8] = tested on: yeast transfected but not sensitive to antifolate antimalarials (folate insensitive); test: Yeast assay for antifolate activity, folate insensitive yeast; format: cell-based, Saccharomyces cerevisiae; details: 48 hours of treatment
Description: as §4, §5

calf DHFR = target: T1, calf DHFR (Bos taurus, UniProt P00376); test: DHFR enzyme assay, calf liver homogenate; format: biochemical
T1 construct: tested using homogenates of calf liver, rat liver and cultures of P. falciparum; from tissue; host or cells: calf liver homogenate
T1 sequence (P00376 1-187): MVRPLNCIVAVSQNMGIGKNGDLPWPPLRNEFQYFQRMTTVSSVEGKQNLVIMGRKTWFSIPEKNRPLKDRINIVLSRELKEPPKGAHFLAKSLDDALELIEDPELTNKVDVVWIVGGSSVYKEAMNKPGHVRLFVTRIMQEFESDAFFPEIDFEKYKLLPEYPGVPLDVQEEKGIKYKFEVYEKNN
Description: (§6) The ability of atrazine to inhibit dihydrofolate reductase (DHFR) is also tested using homogenates of calf liver, rat liver and cultures of P. falciparum. Atrazine's ability to inhibit mammalian DHFR (i.e., calf DHFR and rat DHFR) as well as malarial DHFR is determined using standard enzyme assays and the Michaelis-Menton analysis. The Michaelis-Menton hypothesis states that a complex is formed between an enzyme and its substrate and that the complex then dissociates to yield free enzyme and the reaction products, with the rate of dissociation determining the overall rate of substrate-product conversion. For a more complete review of the Michaelis constant, see Benet et al., 1996, Pharmacokinetics, Chapter 1:3-27, In Goodman & Gilman's The Pharmacological Basis of Therapeutics, Ninth Edition, McGraw-Hill; and Ross, 1996, Pharmacodynamics, Chapter 2:29-41, Id.

rat DHFR = target: T2, rat DHFR (Rattus norvegicus, UniProt Q920D2); test: DHFR enzyme assay, rat liver homogenate; format: biochemical
T2 construct: tested using homogenates of calf liver, rat liver and cultures of P. falciparum; from tissue; host or cells: rat liver homogenate
T2 sequence (Q920D2 1-187): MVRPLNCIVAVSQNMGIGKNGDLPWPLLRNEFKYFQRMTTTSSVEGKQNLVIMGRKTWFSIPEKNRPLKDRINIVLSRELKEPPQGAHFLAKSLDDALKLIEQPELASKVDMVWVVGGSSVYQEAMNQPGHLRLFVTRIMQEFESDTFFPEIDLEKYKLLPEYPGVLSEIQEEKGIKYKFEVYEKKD
Description: as §6

malarial DHFR = test: DHFR enzyme assay, cultures of P. falciparum; format: biochemical
Description: as §6

P. berghei = test: In vivo efficacy against P. berghei in rats, single oral dose; design: species or system rat; details: single oral dose (Chloroquine 20 mg/kg, Atrazine 100 mg/kg) 4 h after inoculation; for Parasitemia Day 4: ethanol control 24%; for Parasitemia Day 11: ethanol control 42%
Description: Rats weighing 60-70 gms were inoculated with P. berghei infected rat red blood cells. […] Blood was obtained 4 days and 11 days later and parasitemia assessed using light microscopy of blood smears. The percent parasitemia (i.e., the presence of parasites in the blood) was then determined for each group and the data are summarized in the table below: […]

P. falciparum = test: Isobologram analysis of chloroquine and atrazine in vitro against P. falciparum; format: cell-based, Plasmodium falciparum; details: each drug alone at its ID50, or combinations of the stated fractions of each ID50
Description: Drugs can interact in additive, antagonistic or synergistic manner. See Berenbaum, J. Infect. Dis., 137:122-130, 1978. The isobologram assay permits determination of the type of interaction that occurs between drugs of interest. The ID50, or […], for both drugs was calculated.
Next, the drugs were tested in vitro at the ID50 for each drug alone and various combinations of drugs as described below:
These combinations of drugs were tested in vitro against P. falciparum and the data analyzed.

[9] = tested on: wild type Plasmodium falciparum; test: In vitro red blood cell culture infected with wild type Plasmodium falciparum, percent RBCs infected; format: cell-based; details: 0.006 μM to 0.4 μM
[10] = rats given a single injection; cited from earlier work
[11] = 48 hrs of treatment, 0.02 μM, control 35%
[12] = 48 hrs of treatment, 0.2 μM, control 35%
[13] = 48 hrs of treatment, 2.0 μM, control 35%
[14] = wild type, 96 hrs of treatment, 0.02 μM, control 18

SMILES: OC(c1cc(C(F)(F)F)nc2c(C(F)(F)F)cccc12)C1CCCCN1 (stereo not shown) [mefloquine, reference compound]
- percentage of RBCs infected with mefloquine-resistant P. falciparum [1]: significantly higher level of RBCs being infected

SMILES: CCNc1nc(Cl)nc(NC(C)(C)C#N)n1 [cyanazine, 2-[[4-chloro-6-(ethylamino)-s-triazin-2-yl]amino]-2-methyl propionitrile]
- Red Blood Cell Infection Rate [2, 11]: 18%
- Red Blood Cell Infection Rate [2, 12]: 17%
- Red Blood Cell Infection Rate [2, 13]: 16%
- effectiveness compared with chloroquine (text to Table 2) ([2]; 48 hrs of treatment): less effective

SMILES: CC(C)Nc1nc(Cl)nc(NC(C)C)n1 [propazine, 2-chloro-4,6-di(isopropylamino)-s-triazine]
- Red Blood Cell Infection Rate [2, 11]: 5%
- Red Blood Cell Infection Rate [2, 12]: 1%
- Red Blood Cell Infection Rate [2, 13]: 1%
- effectiveness compared with chloroquine (text to Table 2) ([2]; 48 hrs of treatment): substantially similar in effectiveness as chloroquine

SMILES: CCNc1nc(Cl)nc(NCC)n1 [simazine, 2-chloro-4,6-di(ethylamino)-s-triazine]
- Red Blood Cell Infection Rate [2, 11]: 3%
- Red Blood Cell Infection Rate [2, 12]: 0%
- Red Blood Cell Infection Rate [2, 13]: 0%
- effectiveness compared with chloroquine (text to Table 2) ([2]; 48 hrs of treatment): substantially similar in effectiveness as chloroquine

SMILES: CCNc1nc(Cl)nc(NC(C)C)n1 [atrazine, 2-chloro-4-ethylamino-6-isopropylamino-s-triazine]
- Red Blood Cell Infection Rate [2, 11]: 3%
- Red Blood Cell Infection Rate [2, 12]: 0%
- Red Blood Cell Infection Rate [2, 13]: 0%
- effectiveness compared with chloroquine (text to Table 2) ([2]; 48 hrs of treatment): substantially similar in effectiveness as chloroquine
- percentage of RBCs infected with P. falciparum (FIGS. 1-4) ([2]; low concentrations, 48 hrs or 96 hrs after treatment): relatively low percentage of the RBCs being infected
- Red Blood Cell Infection Rate [2, 14]: 3%
- percentage of RBCs infected with mefloquine-resistant P. falciparum [1]: relatively low percentage of the RBCs being infected
- effectiveness against resistant parasite (FIGS. 8, 9) ([1]; mefloquine resistant, 48 and 96 hours): effective against several classic forms of resistance
- Red Blood Cell Infection Rate [1]: 3%
- percentage of RBCs infected with chloroquine-resistant P. falciparum [3]: relatively low percentage of the RBCs being infected
- effectiveness against resistant parasite (FIGS. 8, 9) ([3]; chloroquine resistant, 48 and 96 hours): effective against several classic forms of resistance
- Red Blood Cell Infection Rate [3]: 4%
- effectiveness against resistant parasite (FIGS. 8, 9) ([4]; multi-drug resistant, 48 and 96 hours): effective against several classic forms of resistance
- Red Blood Cell Infection Rate [4]: 3%
- percentage of RBCs infected with antifolate-resistant P. falciparum [5]: relatively low percentage of the RBCs being infected
- percentage of RBCs infected with P. berghi [6]: relatively low percentage of the RBCs being infected
- in vivo percentage of RBCs infected with P. berghi compared to non-treated controls (FIG. 6) (Plasmodium berghi): disease dramatically reduced
- percentage of fibroblast cells infected with T. gondii (Toxoplasma gondii): relatively low percentage of the cells being infected
- yeast growth (FIG. 7) (wild type yeast): Neither chloroquine (Clq) nor atrazine affected growth
- yeast growth (FIG. 7) [7]: Neither chloroquine (Clq) nor atrazine affected growth
- yeast growth (FIG. 7) [8]: Neither chloroquine (Clq) nor atrazine affected growth
- inhibition of DHFR (calf DHFR): does not inhibit DHFR
- inhibition of DHFR (rat DHFR): does not inhibit DHFR
- inhibition of DHFR (malarial DHFR): does not inhibit DHFR
- Parasitemia Day 4 (P. berghei): 6.0%
- Parasitemia Day 11 (P. berghei): 10.5%
- Percent Growth Inhibition (P. falciparum): 58%
- effectiveness compared with chloroquine (FIG. 5) [9]: as effective and potent as chloroquine
- LD50 [10]: ~3000 mg/kg

SMILES: CCN(CC)CCCC(C)Nc1ccnc2cc(Cl)ccc12 (stereo not shown) [chloroquine, reference compound]
- Red Blood Cell Infection Rate [2, 11]: 4%
- Red Blood Cell Infection Rate [2, 12]: 0%
- Red Blood Cell Infection Rate [2, 13]: 0%
- Red Blood Cell Infection Rate [2, 14]: 3%
- Red Blood Cell Infection Rate [1]: 13%
- percentage of RBCs infected with chloroquine-resistant P. falciparum [3]: significantly higher level of RBCs being infected
- Red Blood Cell Infection Rate [3]: 28%
- Red Blood Cell Infection Rate [4]: 22%
- in vivo percentage of RBCs infected with P. berghi compared to non-treated controls (FIG. 6) (Plasmodium berghi): disease dramatically reduced
- yeast growth (FIG. 7) [7]: Neither chloroquine (Clq) nor atrazine affected growth
- yeast growth (FIG. 7) [8]: Neither chloroquine (Clq) nor atrazine affected growth
- Parasitemia Day 4 (P. berghei): 5.8%
- Parasitemia Day 11 (P. berghei): 11%
- Percent Growth Inhibition (P. falciparum): 60%

SMILES: c1ncncn1 [triazine]
- percentage of RBCs infected with antifolate-resistant P. falciparum [5]: significantly higher level of RBCs being infected

SMILES: CCNc1nc(NC(C)C)nc(SC)n1 [ametryn, 2-ethylamino-4-isopropylamino-6-thiomethoxy-s-triazine]
- Red Blood Cell Infection Rate [2, 11]: 20%
- Red Blood Cell Infection Rate [2, 12]: 11%
- Red Blood Cell Infection Rate [2, 13]: 10%
- effectiveness compared with chloroquine (text to Table 2) ([2]; 48 hrs of treatment): less effective
